Measured values from US10202377B2, “3-(1H-benzo[D]imidazol-2-yl)-1H-pyrazolo[3,4-C]pyridine and therapeutic uses thereof” (Samumed, LLC, priority 2014, dated 2019).

Tests used:
[1] = test system: Wnt activity (Sp5-Luc reporter, SW480 colon carcinoma cells); assay: Sp5-Luc Wnt reporter gene screening assay in SW480 colon carcinoma cells; settings: Homo sapiens
[2] = test system: primary human fibroblasts derived from IPF patients (LL29 cells); assay: Inhibition of fibrosis (αSMA staining) in TGF-β1-treated primary human fibroblasts from IPF patients; type: cell-based; settings: Fibroblast, 96 h, TGF-β1 20 ng/mL, 4 days
Protocol: The above synthesized compounds were screened using primary human fibroblasts (derived from IPF patients) treated with TGF-β1 to determine their ability to inhibit the fibrotic process.
Compound Screening: Each compound was dissolved in DMSO as a 10 mM stock and used to prepare compound source plates. […] LL29 cells were plated at 1,500 cells/well in 80 μl/well F12 medium supplemented with 1% Fetal Bovine Serum. One hour after addition of the cells, TGF-β1 (Peprotech; 20 ng/mL) was added to the plates to induce fibrosis (ref. 1 and 2 above). Wells treated with TGF-β1 and containing DMSO were used as controls. Cells were incubated at 37° C. and 5% CO2 for 4 days. Following incubation for 4 days, SYTOX green nucleic acid stain (Life Technologies [Thermo Fisher Scientific]) was added to the wells at a final concentration of 1 uM and incubated at room temperature for 30 min. Cells were then fixed using 4% formaldehyde (Electron Microscopy Sciences), washed 3 times with PBS followed by blocking and permeabilization using 3% Bovine Serum Albumin (BSA; Sigma) and 0.3% Triton X-100 (Sigma) in PBS. Cells were then stained with antibody specific to α-smooth muscle actin (aSMA; Abcam) (ref. 1 and 2 above) in 3% Bovine Serum Albumin (BSA; Sigma) and 0.3% Triton X-100 (Sigma) in PBS, and incubated overnight at 4° C. […] Dead or apoptotic cells were excluded from analysis based on positive SYTOX green staining. % of total cells positive for αSMA were counted in each well and normalized to the average of 11 wells treated with TGF-β1 on the same plate using Dotmatics' Studies Software. […] The EC50 values are reported.

SMILES: COc1cncc(-c2cc3c(-c4nc5c(-c6cccc(F)c6)cccc5[nH]4)n[nH]c3cn2)c1 [Compound 948, 3-(4-(3-Fluorophenyl)-1H-benzo[d]imidazol-2-yl)-5-(5-methoxypyridin-3-yl)-1H-pyrazolo[3,4-c]pyridine]
- IC50 [1]: 33 nM
- EC50 [2]: 72 nM

SMILES: Cc1ccncc1-c1cc2c(-c3nc4c(-c5ccsc5)cccc4[nH]3)n[nH]c2cn1 [Compound 265, 5-(4-Methylpyridin-3-yl)-3-(4-(thiophen-3-yl)-1H-benzo[d]imidazol-2-yl)-1H-pyrazolo[3,4-c]pyridine]
- IC50 [1]: 19.4 nM
- EC50 [2]: 9 nM

SMILES: Fc1cccc(-c2cccc3[nH]c(-c4n[nH]c5cnc(C6CCNCC6)cc45)nc23)c1 [Compound 937, 3-(4-(3-Fluorophenyl)-1H-benzo[d]imidazol-2-yl)-5-(piperidin-4-yl)-1H-pyrazolo[3,4-c]pyridine]
- IC50 [1]: 3160 nM
- EC50 [2]: 9990 nM

SMILES: CCC(=O)Nc1cncc(-c2cc3c(-c4nc5c(-c6cccs6)cccc5[nH]4)n[nH]c3cn2)c1 [Compound 313, N-(5-(3-(4-(Thiophen-2-yl)-1H-benzo[d]imidazol-2-yl)-1H-pyrazolo[3,4-c]pyridin-5-yl)pyridin-3-yl)propionamide]
- IC50 [1]: 126 nM
- EC50 [2]: 455 nM

SMILES: Cc1ccncc1-c1cc2c(-c3nc4c(-c5ccncc5)cccc4[nH]3)n[nH]c2cn1 [Compound 109, 5-(4-Methylpyridin-3-yl)-3-(4-(pyridin-4-yl)-1H-benzo[d]imidazol-2-yl)-1H-pyrazolo[3,4-c]pyridine]
- IC50 [1]: 42.5 nM
- EC50 [2]: 29 nM

SMILES: O=C(Nc1cncc(-c2cc3c(-c4nc5c(-c6ccccc6F)cccc5[nH]4)n[nH]c3cn2)c1)C1CCCC1 [Compound 73, N-(5-(3-(4-(2-Fluorophenyl)-1H-benzo[d]imidazol-2-yl)-1H-pyrazolo[3,4-c]pyridin-5-yl)pyridin-3-yl)cyclopentanecarboxamide]
- IC50 [1]: 123 nM
- EC50 [2]: 1190 nM

SMILES: CC(C)(C)C(=O)Nc1cncc(-c2cc3c(-c4nc5c(-c6ccoc6)cccc5[nH]4)n[nH]c3cn2)c1 [Compound 294, N-(5-(3-(4-(Furan-3-yl)-1H-benzo[d]imidazol-2-yl)-1H-pyrazolo[3,4-c]pyridin-5-yl)pyridin-3-yl)pivalamide]
- IC50 [1]: 48.6 nM
- EC50 [2]: 9 nM

SMILES: CCC(=O)Nc1cncc(-c2cc3c(-c4nc5c(-c6cccc(F)c6)cccc5[nH]4)n[nH]c3cn2)c1 [Compound 1, N-(5-(3-(4-(3-Fluorophenyl)-1H-benzo[d]imidazol-2-yl)-1H-pyrazolo[3,4-c]pyridin-5-yl)pyridin-3-yl)propionamide]
- IC50 [1]: 43.9 nM
- EC50 [2]: 9 nM

SMILES: CCNCc1cncc(-c2cc3c(-c4nc5c(-c6cc(F)cc(NCCN(C)C)c6)cccc5[nH]4)n[nH]c3cn2)c1 [Compound 448, N^1-(3-(2-(5-(5-((Ethylamino)methyl)pyridin-3-yl)-1H-pyrazolo[3,4-c]pyridin-3-yl)-1H-benzo[d]imidazol-4-yl)-5-fluorophenyl)-N^2,N^2-dimethylethane-1,2-diamine]
- IC50 [1]: 671 nM
- EC50 [2]: 9 nM

SMILES: CS(=O)(=O)NCc1cc(F)cc(-c2cccc3[nH]c(-c4n[nH]c5cnc(-c6cncc(NC(=O)c7ccccc7)c6)cc45)nc23)c1 [Compound 427, N-(5-(3-(4-(3-Fluoro-5-(methylsulfonamidomethyl)phenyl)-1H-benzo[d]imidazol-2-yl)-1H-pyrazolo[3,4-c]pyridin-5-yl)pyridin-3-yl)benzamide]
- IC50 [1]: 172 nM
- EC50 [2]: 9 nM

SMILES: c1cc(-c2ccoc2)c2nc(-c3n[nH]c4cnc(-c5cncc(CNCC6CCCC6)c5)cc34)[nH]c2c1 [Compound 310, 1-Cyclopentyl-N-((5-(3-(4-(furan-3-yl)-1H-benzo[d]imidazol-2-yl)-1H-pyrazolo[3,4-c]pyridin-5-yl)pyridin-3-yl)methyl)methanamine]
- IC50 [1]: 58.8 nM
- EC50 [2]: 83 nM

SMILES: Cc1cn(-c2cccc3[nH]c(-c4n[nH]c5cnc(-c6cncc(NC(=O)C(C)(C)C)c6)cc45)nc23)cn1 [Compound 190, N-(5-(3-(4-(4-Methyl-1H-imidazol-1-yl)-1H-benzo[d]imidazol-2-yl)-1H-pyrazolo[3,4-c]pyridin-5-yl)pyridin-3-yl)pivalamide]
- IC50 [1]: 53.5 nM
- EC50 [2]: 9 nM

SMILES: CC(C)(C)C(=O)Nc1cncc(-c2cc3c(-c4nc5c(-c6cccs6)cccc5[nH]4)n[nH]c3cn2)c1 [Compound 320, N-(5-(3-(4-(Thiophen-2-yl)-1H-benzo[d]imidazol-2-yl)-1H-pyrazolo[3,4-c]pyridin-5-yl)pyridin-3-yl)pivalamide]
- IC50 [1]: 56.6 nM
- EC50 [2]: 96 nM

SMILES: O=C(Cc1ccccc1)Nc1cncc(-c2cc3c(-c4nc5ccccc5[nH]4)n[nH]c3cn2)c1 [Compound 244, N-(5-(3-(1H-Benzo[d]imidazol-2-yl)-1H-pyrazolo[3,4-c]pyridin-5-yl)pyridin-3-yl)-2-phenylacetamide]
- IC50 [1]: 211 nM
- EC50 [2]: 1960 nM

SMILES: CC(C)C(=O)Nc1cncc(-c2cc3c(-c4nc5c(-c6ccoc6)cccc5[nH]4)n[nH]c3cn2)c1 [Compound 295, N-(5-(3-(4-(Furan-3-yl)-1H-benzo[d]imidazol-2-yl)-1H-pyrazolo[3,4-c]pyridin-5-yl)pyridin-3-yl)isobutyramide]
- IC50 [1]: 39.3 nM
- EC50 [2]: 249 nM

SMILES: CCNCc1cncc(-c2cc3c(-c4nc5c(-c6ccccn6)cccc5[nH]4)n[nH]c3cn2)c1 [Compound 136, N-((5-(3-(4-(Pyridin-2-yl)-1H-benzo[d]imidazol-2-yl)-1H-pyrazolo[3,4-c]pyridin-5-yl)pyridin-3-yl)methyl)ethanamine]
- IC50 [1]: 177 nM
- EC50 [2]: 122 nM

SMILES: COc1cc(F)cc(-c2cccc3[nH]c(-c4n[nH]c5cnc(-c6cncc(NC(=O)CC(C)C)c6)cc45)nc23)c1 [Compound 1394, N-(5-(3-(4-(3-Fluoro-5-methoxyphenyl)-1H-benzo[d]imidazol-2-yl)-1H-pyrazolo[3,4-c]pyridin-5-yl)pyridin-3-yl)-3-methylbutanamide]
- IC50 [1]: 183 nM
- EC50 [2]: 21 nM

SMILES: CN(C)CCNc1cc(F)cc(-c2cccc3[nH]c(-c4n[nH]c5cnc(-c6cncc(CNCC7CCCC7)c6)cc45)nc23)c1 [Compound 466, N^1-(3-(2-(5-(5-(((Cyclopentylmethyl)amino)methyl)pyridin-3-yl)-1H-pyrazolo[3,4-c]pyridin-3-yl)-1H-benzo[d]imidazol-4-yl)-5-fluorophenyl)-N^2,N^2-dimethylethane-1,2-diamine]
- IC50 [1]: 466 nM
- EC50 [2]: 308 nM

SMILES: CS(=O)(=O)NCc1cc(F)cc(-c2cccc3[nH]c(-c4n[nH]c5cnc(-c6cncc(CNCc7ccccc7)c6)cc45)nc23)c1 [Compound 439, N-(3-(2-(5-(5-((Benzylamino)methyl)pyridin-3-yl)-1H-pyrazolo[3,4-c]pyridin-3-yl)-1H-benzo[d]imidazol-4-yl)-5-fluorobenzyl)methanesulfonamide]
- IC50 [1]: 40.1 nM
- EC50 [2]: 9 nM

SMILES: CC(C)C(=O)Nc1cncc(-c2cc3c(-c4nc5c(-c6cccs6)cccc5[nH]4)n[nH]c3cn2)c1 [Compound 321, N-(5-(3-(4-(Thiophen-2-yl)-1H-benzo[d]imidazol-2-yl)-1H-pyrazolo[3,4-c]pyridin-5-yl)pyridin-3-yl)isobutyramide]
- IC50 [1]: 16.3 nM
- EC50 [2]: 306 nM

SMILES: CCCC(=O)Nc1cncc(-c2cc3c(-c4nc5c(-c6ccsc6)cccc5[nH]4)n[nH]c3cn2)c1 [Compound 277, N-(5-(3-(4-(Thiophen-3-yl)-1H-benzo[d]imidazol-2-yl)-1H-pyrazolo[3,4-c]pyridin-5-yl)pyridin-3-yl)butyramide]
- IC50 [1]: 43.5 nM
- EC50 [2]: 9 nM

SMILES: CCC(=O)Nc1cncc(-c2cc3c(-c4nc5c(N6CCCCC6)cccc5[nH]4)n[nH]c3cn2)c1 [Compound 157, N-(5-(3-(4-(Piperidin-1-yl)-1H-benzo[d]imidazol-2-yl)-1H-pyrazolo[3,4-c]pyridin-5-yl)pyridin-3-yl)propionamide]
- IC50 [1]: 97.2 nM
- EC50 [2]: 99 nM

SMILES: O=C(Nc1cncc(-c2cc3c(-c4nc5c(-c6ccc(F)cc6)cccc5[nH]4)n[nH]c3cn2)c1)C1CCC1 [Compound 46, N-(5-(3-(4-(4-Fluorophenyl)-1H-benzo[d]imidazol-2-yl)-1H-pyrazolo[3,4-c]pyridin-5-yl)pyridin-3-yl)cyclobutanecarboxamide]
- IC50 [1]: 48.9 nM
- EC50 [2]: 94 nM

SMILES: CCCC(=O)Nc1cncc(-c2cc3c(-c4nc5c(-c6cccs6)cccc5[nH]4)n[nH]c3cn2)c1 [Compound 329, N-(5-(3-(4-(Thiophen-2-yl)-1H-benzo[d]imidazol-2-yl)-1H-pyrazolo[3,4-c]pyridin-5-yl)pyridin-3-yl)butyramide]
- IC50 [1]: 56 nM
- EC50 [2]: 67 nM

SMILES: CC(=O)c1ccc(-c2cccc3[nH]c(-c4n[nH]c5cnc(-c6cncc(NC(=O)Cc7ccccc7)c6)cc45)nc23)s1 [Compound 400, N-(5-(3-(4-(5-Acetylthiophen-2-yl)-1H-benzo[d]imidazol-2-yl)-1H-pyrazolo[3,4-c]pyridin-5-yl)pyridin-3-yl)-2-phenylacetamide]
- IC50 [1]: 42.3 nM
- EC50 [2]: 218 nM
